From the Deep4Chem optical property database
Where “and” joins values, the source holds several entries; their conditions need not be identical. Identical values can stand only once.

Assay: solvent given as SMILES

CN1c2ccccc2CCc2ccccc21
emission maximum (in CC#N): 346 nm
emission maximum (in CO): 348 nm

CN(C)c1ccc2nc(-c3ccc(C(=O)O)cc3)sc2c1
emission maximum (in C1CCCCC1): 426 nm
emission maximum (in CC#N): 558 nm
emission maximum (in CC(C)O): 493 nm
emission maximum (in CO): 512 nm
emission maximum (in CS(C)=O): 568 nm
emission maximum (in ClC(Cl)Cl): 509 nm
emission maximum (in c1ccccc1): 483 nm and 486 nm

c1ccc(-c2ccc(-c3ccc(-c4ccccc4)cc3)cc2)cc1
emission maximum (in C1CCOC1): 368 nm
emission maximum (in C1COCCO1): 369 nm

CCCc1cc2c(s1)-c1cc3c(cc1NB2c1ccccc1)-c1sc(CCC)cc1B(c1ccccc1)N3
emission maximum (in ClCCl): 418 nm

Cc1c2c(c(C)c3ccccc13)-c1c-2ccc2nc3ccccc3nc12
emission maximum (in ClC(Cl)Cl): 648 nm

Cc1cc(C)c(B(c2cc(-c3ccc(C(C)(C)C)cc3)sc2-c2sc(-c3ccc(C(C)(C)C)cc3)cc2P(=O)(c2ccccc2)c2ccccc2)c2c(C)cc(C)cc2C)c(C)c1
emission maximum (in CO): 572 nm

Cc1cc(C)n2c1C=C1c3ccccc3C(c3c[nH]c4ccccc34)=[N+]1[B-]2(F)F
emission maximum (in C1CCOC1): 606 nm
emission maximum (in CC#N): 602 nm
emission maximum (in CCCCCC): 598 nm
emission maximum (in CO): 603 nm
emission maximum (in Cc1ccccc1): 608 nm
emission maximum (in ClCCl): 606 nm

N#Cc1ccc(N2c3ccccc3C(c3ccccc3)(c3ccccc3)c3ccccc32)cc1
emission maximum (in Cc1ccccc1): 428 nm

Cc1ccc(/C=C/c2ccccc2-[n+]2noc([O-])c2C)cc1
emission maximum (in C1CCCCC1): 348 nm
emission maximum (in CC#N): 450 nm

Oc1ccccc1-c1nc2c(c3c1-c1ccccc1CC3)-c1ccccc1CC2
emission maximum (in ClCCl): 413 nm

Nc1c(-c2nn([C@H]3C[C@H](O)[C@@H](CO)O3)c3ncnc(N)c23)ccc2ccccc12
emission maximum (in C1COCCO1): 428 nm
emission maximum (in CC#N): 458 nm
emission maximum (in CC(C)O): 480 nm
emission maximum (in CCO): 489 nm
emission maximum (in CCOC(C)=O): 433 nm
emission maximum (in CN(C)C=O): 452 nm
emission maximum (in CO): 498 nm
emission maximum (in CS(C)=O): 450 nm
emission maximum (in OCC(O)CO): 404 nm
emission maximum (in OCCO): 493 nm

CCCCNc1ccc(NCCCC)c2c1C(=O)c1ccccc1C2=O
emission maximum (in C1CCCCC1): 665 nm
emission maximum (in C1COCCO1): 672 nm
emission maximum (in CC(C)=O): 671 nm
emission maximum (in CCCCCCCCCCO): 668 nm
emission maximum (in CCCCCCCO): 661 nm
emission maximum (in CCCCCCO): 670 nm
emission maximum (in CCCCO): 671 nm
emission maximum (in CCO): 674 nm
emission maximum (in CN(C)C=O): 664 nm
emission maximum (in CO): 666 nm
emission maximum (in CS(C)=O): 678 nm
emission maximum (in ClC(Cl)(Cl)Cl): 675 nm
emission maximum (in c1ccccc1): 667 nm

COc1ccc(C#CC2=C3CCc4ccccc4C3=[O+][B-](F)(F)O2)cc1
emission maximum (in ClCCl): 493 nm

c1ccc(-c2ccc3c(c2)c2cc(-c4ccccc4)ccc2n3-c2ccc3c(c2)c2cc(-n4c5ccc(-c6ccccc6)cc5c5cc(-c6ccccc6)ccc54)ccc2n3-c2ccc(-c3nc(-c4ccccc4)nc(-c4ccccc4)n3)cc2)cc1
emission maximum (in Cc1ccccc1): 457 nm
emission maximum (in O=P(c1ccccc1)(c1ccccc1)c1ccccc1Oc1ccccc1P(=O)(c1ccccc1)c1ccccc1): 480 nm

CCCCC1(c2ccccc2)Nc2c(-c3ccc(N(C)c4ccccc4)cc3)ccc(-c3ccc(N(C)c4ccccc4)cc3)c2N=C1c1ccccc1 (stereo not given)
emission maximum (in C1CCOC1): 580 nm
emission maximum (in CC#N): 602 nm
emission maximum (in CCCCCC): 553 nm
emission maximum (in CN(C)C=O): 603 nm
emission maximum (in Cc1ccccc1): 573 nm
emission maximum (in ClC(Cl)Cl): 589 nm

CCCCCCCCc1ccc(-n2c3c4ccccc4nc(-c4ccc(C#N)cc4)c3c3c2c2c(-c4ccc(C#N)cc4)nc4ccccc4c2n3-c2ccc(CCCCCCCC)cc2)cc1
emission maximum (in ClC(Cl)Cl): 510 nm

COc1ccc(C#Cc2ccccc2C#Cc2ccc(OC)cc2)cc1
emission maximum (in CC#N): 380 nm

O=S1(=O)C2=C(c3ccccc31)C1(c3ccccc32)c2ccccc2-c2sc3ccccc3c21 (stereo not given)
emission maximum (in ClCCl): 459 nm

CCCCc1ccc(-n2c3c(c4c2c2c(n4-c4ccc(CCCC)cc4)-c4cc(F)ccc4NB2c2ccccc2)B(c2ccccc2)Nc2ccc(F)cc2-3)cc1
emission maximum (in Cc1ccccc1): 406 nm

Cc1cn2cc(-c3ccc(-c4ccccc4)cc3)[n-][n+]2c1
emission maximum (in ClCCl): 466 nm

CCCCC(CC)CN1C(=O)c2cc(Oc3ccc(OC)cc3)c3c4c(Oc5ccc(C(C)(C)C)cc5)cc5c6c(cc(Oc7ccc(C(C)(C)C)cc7)c(c7c(Oc8ccc(OC)cc8)cc(c2c37)C1=O)c64)C(=O)N(c1c(C(C)C)cccc1C(C)C)C5=O (stereo not given)
emission maximum (in Cc1ccccc1): 608 nm

COc1ccc(-c2c3cc4cc(C)sc4cc3c(-c3ccc(OC)cc3)c3cc4cc(C)sc4cc23)cc1
emission maximum (in ClCCl): 514 nm

CN(C)c1ccc(-c2nc3cccnc3[nH]2)cc1
emission maximum (in C1CCCCC1): 359 nm
emission maximum (in CC#N): 408 nm

COc1cc2c3c(c4cc(OC)c(OC)c(OC)c4c2c(OC)c1OC)=[N+]1C(=C(c2c(C)cc(C)cc2C)c2cc4c5cc(OC)c(OC)c(OC)c5c5c(OC)c(OC)c(OC)cc5c4n2[B-]1(F)F)C=3
emission maximum (in C1CCCCC1): 749 nm
emission maximum (in C1CCOC1): 763 nm
emission maximum (in CC#N): 755 nm
emission maximum (in Cc1ccccc1): 767 nm
emission maximum (in ClCCl): 771 nm
